The values that follow come from ChEMBL document CHEMBL3751785, “Development and structural analysis of adenosine site binding tankyrase inhibitors” (Bioorg Med Chem Lett, 2016).

Structures are written as SMILES.

The target in assay [1] is T1, Poly [ADP-ribose] polymerase tankyrase-2 (Homo sapiens, UniProt Q9H2K2).
T1 sequence (Q9H2K2 whole entry): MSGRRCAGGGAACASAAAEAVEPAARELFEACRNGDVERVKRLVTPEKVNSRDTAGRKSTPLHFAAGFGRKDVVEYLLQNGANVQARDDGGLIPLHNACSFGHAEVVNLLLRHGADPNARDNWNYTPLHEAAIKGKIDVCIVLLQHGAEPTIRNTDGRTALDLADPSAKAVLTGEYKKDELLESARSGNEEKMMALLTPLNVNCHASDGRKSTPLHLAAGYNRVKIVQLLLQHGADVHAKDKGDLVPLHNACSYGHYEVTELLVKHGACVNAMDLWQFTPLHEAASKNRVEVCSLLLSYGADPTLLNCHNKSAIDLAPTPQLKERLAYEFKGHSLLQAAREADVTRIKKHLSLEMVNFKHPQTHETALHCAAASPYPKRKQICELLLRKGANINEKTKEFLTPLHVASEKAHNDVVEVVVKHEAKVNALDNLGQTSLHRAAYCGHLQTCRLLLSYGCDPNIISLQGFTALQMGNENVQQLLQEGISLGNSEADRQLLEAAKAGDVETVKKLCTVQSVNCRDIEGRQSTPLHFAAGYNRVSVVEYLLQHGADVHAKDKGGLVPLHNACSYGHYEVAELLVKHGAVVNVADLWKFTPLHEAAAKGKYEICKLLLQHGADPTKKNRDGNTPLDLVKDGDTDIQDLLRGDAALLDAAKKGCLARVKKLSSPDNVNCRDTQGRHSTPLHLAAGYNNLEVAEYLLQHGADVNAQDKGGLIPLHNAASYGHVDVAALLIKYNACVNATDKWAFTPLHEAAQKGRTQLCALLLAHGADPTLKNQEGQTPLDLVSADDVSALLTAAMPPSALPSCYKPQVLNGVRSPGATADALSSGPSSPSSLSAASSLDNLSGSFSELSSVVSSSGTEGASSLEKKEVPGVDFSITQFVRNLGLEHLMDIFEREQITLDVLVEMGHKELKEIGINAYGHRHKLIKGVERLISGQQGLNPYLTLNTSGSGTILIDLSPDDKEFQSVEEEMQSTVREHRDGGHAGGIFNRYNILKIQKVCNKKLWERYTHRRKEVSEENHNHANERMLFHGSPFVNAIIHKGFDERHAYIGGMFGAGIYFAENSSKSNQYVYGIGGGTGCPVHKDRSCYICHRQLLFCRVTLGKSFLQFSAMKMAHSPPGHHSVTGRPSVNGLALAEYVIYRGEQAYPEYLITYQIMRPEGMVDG
Description: Inhibition of human TNKS2 by fluorescence analysis.

Assay [2] addresses Poly [ADP-ribose] polymerase 1 (Homo sapiens, UniProt P09874). Description: Inhibition of human ARTD1 by fluorescence analysis.

Chain of Poly [ADP-ribose] polymerase 1 (P09874 whole entry): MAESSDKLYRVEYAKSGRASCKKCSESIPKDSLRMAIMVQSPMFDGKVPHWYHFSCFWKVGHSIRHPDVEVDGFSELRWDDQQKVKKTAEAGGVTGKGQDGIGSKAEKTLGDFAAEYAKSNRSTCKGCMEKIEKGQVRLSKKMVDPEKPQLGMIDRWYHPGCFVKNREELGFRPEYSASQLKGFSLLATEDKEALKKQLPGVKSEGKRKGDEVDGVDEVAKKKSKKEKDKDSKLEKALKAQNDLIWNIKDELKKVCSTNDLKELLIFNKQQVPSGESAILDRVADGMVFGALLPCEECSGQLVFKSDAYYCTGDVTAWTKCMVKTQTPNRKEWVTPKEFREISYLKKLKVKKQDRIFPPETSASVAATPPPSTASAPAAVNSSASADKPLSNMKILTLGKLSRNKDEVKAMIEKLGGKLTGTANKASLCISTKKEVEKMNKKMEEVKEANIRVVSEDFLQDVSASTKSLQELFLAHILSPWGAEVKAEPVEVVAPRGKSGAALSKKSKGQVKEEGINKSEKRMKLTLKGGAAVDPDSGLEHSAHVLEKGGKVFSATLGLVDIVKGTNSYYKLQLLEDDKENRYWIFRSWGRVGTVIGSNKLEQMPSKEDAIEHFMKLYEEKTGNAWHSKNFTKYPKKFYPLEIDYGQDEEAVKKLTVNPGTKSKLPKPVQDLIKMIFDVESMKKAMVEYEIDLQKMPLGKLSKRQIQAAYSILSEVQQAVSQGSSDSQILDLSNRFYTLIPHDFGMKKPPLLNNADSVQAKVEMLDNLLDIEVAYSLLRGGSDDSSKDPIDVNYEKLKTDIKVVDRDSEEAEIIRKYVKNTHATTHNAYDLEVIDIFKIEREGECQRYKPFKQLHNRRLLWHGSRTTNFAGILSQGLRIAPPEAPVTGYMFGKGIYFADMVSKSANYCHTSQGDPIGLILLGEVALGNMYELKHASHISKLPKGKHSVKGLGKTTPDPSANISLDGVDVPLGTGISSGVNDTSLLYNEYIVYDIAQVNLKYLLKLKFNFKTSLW

Consider `COc1ccc(C2(CNC(=O)c3ccc(NC(=O)c4ccco4)cc3Cl)CCOCC2)cc1`, for which the IC50 in assay [1] (read-out: IC50) was 2.15 µM; in assay [1] (read-out: pIC50 (converted)), 2.14 µM; in assay [2] it was over 100 µM.
